The values below come from ChEMBL document CHEMBL1157533 (J Med Chem, 2008).

Data set [1] can be described thus: Cmax in dog at 0.1 mg/kg, po by cassette assay. The class given is ADME, organism-based, Canis lupus familiaris. Set-up: dose 0.1 mg/kg, route oral. To be noted: in vivo.
Data set [2] in a line: Bioavailability in dog at 0.1 mg/kg, po by cassette assay. The class given is ADME, organism-based, Canis lupus familiaris. To be noted: in vivo.
The nature of data set [3]: Total clearance in dog at 0.1 mg/kg, iv by cassette assay. The class given is ADME, organism-based, Canis lupus familiaris. Also on record: dose 0.1 mg/kg, route intravenous. The note with it: in vivo.
Data set [4] is described as follows: AUC (0 to 24 hrs) in dog at 0.1 mg/kg, po by cassette assay. The class given is ADME, organism-based, Canis lupus familiaris. Set-up: time < 24 hr, dose 0.1 mg/kg, route oral. To be noted: plasma.
Data set [5] addresses Beta-1 adrenergic receptor (Homo sapiens, UniProt P08588). Briefly: Agonist activity at human recombinant beta-1 adrenergic receptor expressed in CHO cells assessed as cAMP accumulation by enzyme immuno assay. The class given is functional, cell-based.
A short description of data set [6]: Terminal half life in dog at 0.1 mg/kg, iv by cassette assay. In kind it is ADME, organism-based, Canis lupus familiaris. Set-up: dose 0.1 mg/kg, route intravenous. To be noted: in vivo, read-out: beta t1/2 (converted).
The target in data set [7] is Beta-3 adrenergic receptor (Homo sapiens, UniProt P13945). Briefly: Agonist activity at human recombinant beta3 adrenergic receptor expressed in CHO cells assessed as cAMP accumulation by enzyme immuno assay. The class given is functional, cell-based.
The nature of data set [8]: Bioavailability in dog. The note with it: in vivo. The class given is ADME, organism-based, Canis lupus familiaris.
Data set [9] deals with Beta-2 adrenergic receptor (Homo sapiens, UniProt P07550). Briefly: Agonist activity at human recombinant beta2 adrenergic receptor expressed in CHO cells assessed as cAMP accumulation by enzyme immuno assay. In kind it is functional, cell-based. (In general: Changes in cAMP serve as a functional read-out for many G protein-coupled receptors.)
The species entered for a further data set is Canis familiaris. The data set can be described thus: cells. To be noted: Canis lupus familiaris, 3 h.
Data set [10] in a line: AUC (0 to 24 hrs) in dog at 0.32 mg/kg, po. In kind it is ADME, organism-based, Canis lupus familiaris. Set-up: time < 24 hr, dose 0.32 mg/kg, route oral. To be noted: plasma.
Data set [11] in a line: AUC (0 to 24 hrs) in rat at 1.0 mg/kg, po. The class given is ADME, organism-based. Also on record: time < 24 hr, dose 1 mg/kg, route oral. The note with it: plasma.
A short description of data set [12]: AUC (0 to 24 hrs) in monkey at 0.27 mg/kg, po by cassette assay. In kind it is ADME, organism-based, Macaca mulatta. Also on record: time < 24 hr, dose 0.27 mg/kg, route oral. To be noted: rhesus monkey, plasma.
Data set [13] can be described thus: Bioavailability in dog at 0.32 mg/kg, po. The class given is ADME, organism-based, Canis lupus familiaris. To be noted: in vivo.
A short description of data set [14]: Cmax in dog at 0.32 mg/kg, po. In kind it is ADME, organism-based, Canis lupus familiaris. Also on record: dose 0.32 mg/kg, route oral. To be noted: in vivo.
A short description of data set [15]: Bioavailability in monkey at 0.27 mg/kg, po by cassette assay. In kind it is ADME, organism-based, Macaca mulatta. To be noted: rhesus monkey, in vivo.
The nature of data set [16]: Cmax in monkey at 0.27 mg/kg, po by cassette assay. The class given is ADME, organism-based, Macaca mulatta. Set-up: dose 0.27 mg/kg, route oral. The note with it: rhesus monkey, in vivo.
Data set [17] can be described thus: Total clearance in monkey at 0.27 mg/kg, iv by cassette assay. The class given is ADME, organism-based, Macaca mulatta. Also on record: dose 0.27 mg/kg, route intravenous. The note with it: rhesus monkey, in vivo.
A short description of data set [18]: Protein binding in Beagle dog serum. The class given is ADME, cell-free, Canis lupus familiaris. To be noted: read-out: PPB (converted).
Data set [19] in a line: Total clearance in rat at 1.0 mg/kg, iv. The class given is ADME, organism-based. Also on record: dose 1 mg/kg, route intravenous. The note with it: in vivo.
Data set [20] in a line: Terminal half life in dog plasma at 0.32 mg/kg, iv. The class given is ADME, organism-based, Canis lupus familiaris. Also on record: dose 0.32 mg/kg, route intravenous. The note with it: read-out: beta t1/2 (converted).
In data set [21] the target is Beta-3 adrenergic receptor (Canis lupus familiaris, UniProt O02662). The data set can be described thus: Agonist activity at dog recombinant beta3 adrenergic receptor expressed in CHO cells assessed as cAMP accumulation by enzyme immuno assay. In kind it is functional, cell-based.
Data set [22] in a line: Terminal half life in rat plasma at 1.0 mg/kg, iv. To be noted: read-out: beta t1/2 (converted). The class given is ADME, organism-based. Also on record: dose 1 mg/kg, route intravenous.
Data set [23] can be described thus: Bioavailability in rat at 1.0 mg/kg, po. To be noted: in vivo. The class given is ADME, organism-based.
A short description of data set [24]: Terminal half life in monkey plasma at 0.27 mg/kg, iv by cassette assay. The class given is ADME, organism-based, Macaca mulatta. Also on record: dose 0.27 mg/kg, route intravenous. The note with it: rhesus monkey, read-out: beta t1/2 (converted).
The nature of data set [25]: Total clearance in dog at 0.32 mg/kg, iv. The class given is ADME, organism-based, Canis lupus familiaris. Also on record: dose 0.32 mg/kg, route intravenous. To be noted: in vivo.
The nature of data set [26]: Cmax in rat at 1.0 mg/kg, po. In kind it is ADME, organism-based. Also on record: dose 1 mg/kg, route oral. The note with it: in vivo.
Data set [27] in a line: Bioavailability in monkey at 0.32 mg/kg, po by cassette assay. To be noted: rhesus monkey, in vivo. The class given is ADME, organism-based, Macaca mulatta.
Data set [28] is described as follows: Metabolic stability assessed as intrinsic clearance in human liver microsome in presence of NADPH-generating system. The note with it: liver microsomes. The class given is ADME. Background: Microsomes from liver hold many membrane-bound enzymes, among them those of drug oxidation.
The nature of data set [29]: Metabolic stability assessed as intrinsic clearance in monkey liver microsome in presence of NADPH-generating system. To be noted: rhesus monkey, liver microsomes. In kind it is ADME, Macaca mulatta.
A short description of data set [30]: Metabolic stability assessed as intrinsic clearance in dog liver microsome in presence of NADPH-generating system. To be noted: liver microsomes. In kind it is ADME, Canis lupus familiaris.
The nature of data set [31]: Total clearance in monkey at 0.32 mg/kg, iv by cassette assay. The class given is ADME, organism-based, Macaca mulatta. Also on record: dose 0.32 mg/kg, route intravenous. The note with it: rhesus monkey, in vivo.
Data set [32] can be described thus: Terminal half life in monkey plasma at 0.32 mg/kg, iv by cassette assay. The class given is ADME, organism-based, Macaca mulatta. Set-up: dose 0.32 mg/kg, route intravenous. To be noted: rhesus monkey, read-out: beta t1/2 (converted).
A short description of data set [33]: Metabolic stability assessed as intrinsic clearance in rat liver microsome in presence of NADPH-generating system. In kind it is ADME. To be noted: liver microsomes.
Data set [34] in a line: AUC (0 to 24 hrs) in monkey at 0.32 mg/kg, po by cassette assay. The note with it: rhesus monkey, plasma. In kind it is ADME, organism-based, Macaca mulatta. Set-up: time < 24 hr, dose 0.32 mg/kg, route oral.

The structures appear in SMILES notation.

Chain of Beta-1 adrenergic receptor (P08588 whole entry): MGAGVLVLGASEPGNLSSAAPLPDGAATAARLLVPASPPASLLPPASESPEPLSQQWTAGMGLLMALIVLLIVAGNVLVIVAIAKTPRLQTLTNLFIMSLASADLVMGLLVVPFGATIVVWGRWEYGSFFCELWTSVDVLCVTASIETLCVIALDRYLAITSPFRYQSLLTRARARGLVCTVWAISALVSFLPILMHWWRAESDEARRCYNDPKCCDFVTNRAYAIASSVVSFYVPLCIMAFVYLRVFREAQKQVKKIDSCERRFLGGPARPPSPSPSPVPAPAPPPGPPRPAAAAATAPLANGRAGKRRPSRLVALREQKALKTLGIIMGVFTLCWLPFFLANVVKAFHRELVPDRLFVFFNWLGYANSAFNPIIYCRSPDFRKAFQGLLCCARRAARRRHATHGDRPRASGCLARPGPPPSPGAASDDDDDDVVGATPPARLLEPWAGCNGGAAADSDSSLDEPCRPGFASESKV
Chain of Beta-3 adrenergic receptor (Homo sapiens, UniProt P13945) (P13945 whole entry): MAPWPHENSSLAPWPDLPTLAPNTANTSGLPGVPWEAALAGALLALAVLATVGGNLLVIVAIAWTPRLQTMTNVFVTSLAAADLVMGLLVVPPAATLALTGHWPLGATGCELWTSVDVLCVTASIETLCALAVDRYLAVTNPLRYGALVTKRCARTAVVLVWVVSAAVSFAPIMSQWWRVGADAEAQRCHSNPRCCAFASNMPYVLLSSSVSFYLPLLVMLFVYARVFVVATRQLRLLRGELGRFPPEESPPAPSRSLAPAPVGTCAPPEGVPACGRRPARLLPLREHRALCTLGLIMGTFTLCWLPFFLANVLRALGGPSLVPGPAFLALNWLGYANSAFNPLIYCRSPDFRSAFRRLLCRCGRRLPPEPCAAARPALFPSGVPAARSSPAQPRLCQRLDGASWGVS
Chain of Beta-2 adrenergic receptor (P07550 whole entry): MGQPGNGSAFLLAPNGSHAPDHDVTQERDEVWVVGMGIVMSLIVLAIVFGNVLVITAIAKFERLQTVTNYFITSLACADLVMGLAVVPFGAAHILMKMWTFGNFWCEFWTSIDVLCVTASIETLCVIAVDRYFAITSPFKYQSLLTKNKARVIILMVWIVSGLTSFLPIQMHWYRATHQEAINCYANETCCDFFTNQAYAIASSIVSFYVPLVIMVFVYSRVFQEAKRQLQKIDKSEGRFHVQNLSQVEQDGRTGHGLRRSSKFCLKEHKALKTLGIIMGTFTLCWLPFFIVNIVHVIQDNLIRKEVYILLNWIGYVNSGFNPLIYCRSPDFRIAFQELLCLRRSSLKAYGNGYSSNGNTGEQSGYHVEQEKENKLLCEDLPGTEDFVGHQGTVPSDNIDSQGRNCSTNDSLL
Chain of Beta-3 adrenergic receptor (Canis lupus familiaris, UniProt O02662) (O02662 whole entry): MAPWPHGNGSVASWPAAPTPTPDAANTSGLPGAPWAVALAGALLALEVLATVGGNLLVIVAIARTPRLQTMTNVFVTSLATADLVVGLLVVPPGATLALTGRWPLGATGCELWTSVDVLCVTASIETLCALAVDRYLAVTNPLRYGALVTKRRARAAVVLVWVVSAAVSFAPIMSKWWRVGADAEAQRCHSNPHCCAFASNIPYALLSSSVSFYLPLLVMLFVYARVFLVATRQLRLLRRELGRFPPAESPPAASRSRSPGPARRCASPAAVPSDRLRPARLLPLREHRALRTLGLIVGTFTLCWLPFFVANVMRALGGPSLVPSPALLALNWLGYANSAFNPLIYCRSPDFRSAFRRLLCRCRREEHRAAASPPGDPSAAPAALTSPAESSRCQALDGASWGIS
Description for Canis familiaris: Inhibition of carbachol-induced increase in intravesical pressure in intraduodenally dosed Beagle dog OAB model for 180 mins

With `CCCOc1cc(-c2ccc(OCCNC[C@H](O)c3cccc(Cl)c3)cc2)ccc1C(=O)O`, in data set [1], the highest level (Cmax) was 40.6 ng/mL. Also, the bioavailability – broadly, dose-corrected exposure relative to a reference, in per cent – in data set [2] was determined as 69.7%. In addition, the clearance (commonly a measure of how efficiently the substance is removed, as volume per time) in data set [3] was 2.9 mL/min/kg. Moreover, the AUC(0-t) (as a rule, the area under the concentration-time curve up to a stated or last time point) at 24 h in data set [4] stood at 420 ng·h/mL. Also, the EC50 (in general, the midpoint of the concentration-response curve) was determined as 120 nM in [5] and 0.21 nM in data set [7]. Moreover, the half-life in data set [6] was 10.9 h.

Take `COc1cc(-c2ccc(CCNC[C@H](O)c3cccc(Cl)c3)cc2)ccc1C(=O)O`: the bioavailability in [8] was determined as 58%.

For the compound `CC(C)Oc1cc(-c2ccc(CCNC[C@H](O)c3cccnc3)cc2)ccc1C(=O)O`, the EC50 is over 10000 nM in [9]; 7.8 nM in the data set filed under Canis familiaris; 11 nM in data set [21]; over 1000 nM in data set [5]; 1.5 nM in [7]. In the data set listed under Canis familiaris, it took a dose of 0.0284 mg/kg to reach the 50% effect level (ED50). Further, the AUC(0-t) at 24 h was 461 ng·h/mL in [10], 548 ng·h/mL in data set [11] and 77.5 ng·h/mL in [12]. Also, the bioavailability stood at 63.2% in [13], 25.7% in data set [15] and 61.5% in [23]. Further, the results for the Cmax in data set [14], in data set [16] and in data set [26] were 27 ng/mL, 11 ng/mL and 172 ng/mL, respectively. For the same compound, the results for the clearance in [17], in data set [19] and in data set [25] were 22.8 mL/min/kg, 16 mL/min/kg and 6.4 mL/min/kg, respectively. In addition, the fraction unbound in [18] was 0.23. Also, the half-life is 9.9 h in data set [20], 3.5 h in [22] and 2.2 h in data set [24].

Regarding `CC(C)Cc1cc(-c2ccc(CCNC[C@H](O)c3ccc(N)nc3)cc2)ccc1C(=O)O`, the EC50 amounted to 3200 nM in data set [9]; 1.8 nM in the data set listed under Canis familiaris; 3.2 nM in data set [21]; 150 nM in [5]; 0.066 nM in [7]. The bioavailability came out at 48.6% in data set [27], 27% in [13] and 12.4% in [23]. The median effective dose (ED50) (usually the dose that gives a 50% effect, or the effect in half of the subjects) in the data set listed under Canis familiaris turned out to be 0.0161 mg/kg. Also, the exposure AUC(0-t) at 24 h in data set [10] came to 177 ng·h/mL; in data set [11], 208 ng·h/mL; in [34] it was 90.8 ng·h/mL. The CLint scaled (in general, the capacity of the preparation to metabolise the compound, expressed as a volume cleared per time) was 2.2 mL/min/kg in data set [28], 3.8 mL/min/kg in data set [29], under 2 mL/min/kg in data set [30] and under 2 mL/min/kg in [33]. The values for the Cmax in data set [14] and in data set [26] were 49.1 ng/mL and 21.9 ng/mL, respectively. The figures for the clearance in data set [31], in [19] and in [25] were 24.3 mL/min/kg, 8.5 mL/min/kg and 7.9 mL/min/kg, respectively. Moreover, the fraction unbound in data set [18] is 0.2. Besides, the half-life in data set [20] is 7.6 h; in data set [22], 1.9 h; in data set [32], 5.9 h.
